Experimental data from US20230116972A1, “CD38 MODULATORS AND METHODS OF USE THEREOF” (Cytokinetics, Inc., priority 2021, published 2023).
One block for each compound: values may come before it.

Columns and labels:
human CD38 = target: T1, human CD38 (Homo sapiens, UniProt P28907); assay: human recombinant CD38 enzyme assay (hydrolysis of NAD+); assay type: biochemical; details: human recombinant CD38, 0.4 nM enzyme, 62.5 μM NAD+; read-out: hCD38 BioChem IC50
T1 sequence (P28907 1-300): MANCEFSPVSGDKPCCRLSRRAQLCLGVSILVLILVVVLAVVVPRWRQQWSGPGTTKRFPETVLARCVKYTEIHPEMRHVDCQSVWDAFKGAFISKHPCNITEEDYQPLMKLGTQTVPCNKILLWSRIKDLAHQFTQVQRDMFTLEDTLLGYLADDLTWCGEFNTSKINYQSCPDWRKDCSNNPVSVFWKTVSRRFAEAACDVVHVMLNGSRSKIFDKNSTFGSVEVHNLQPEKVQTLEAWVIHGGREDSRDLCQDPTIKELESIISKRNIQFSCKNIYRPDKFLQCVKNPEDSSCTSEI
Protocol: (§1) Compounds described herein were assayed for their ability to inhibit the hydrolysis of NAD+ by the protein CD38. The human and mouse recombinant enzyme assays measure the inhibition of the enzyme activity by compounds using recombinant enzymes and substrates in a buffered cell-free system. The assay conditions closely mimic cellular environments. Dose responses were measured using an assay to detect the hydrolysis of NAD+. All experiments were performed in the 384-well format. […] Enzyme reactions were initiated with the addition of 10 μL of a solution containing NAD+ substrate. Subsequent detection of remaining NAD+ was determined by first converting NAD+ to NADH using alcohol dehydrogenase, then using the resulting NADH to reduce resazurine to the fluorescent product resorufin. […] Following an incubation of 60 min at ambient temperature, 10 μL of 120 mM ethanol+20 U/ml alcohol dehydrogenase+30 mM semicarbazide+0.03 mM CD38 inhibitor in 50 mM HEPES, pH 7.5, 0.2 mg/ml BSA, was added and incubated at ambient temperature for 15 min. Then 10 μl 0.32 mM NaOH was added to stop the ADH reaction (plates incubated at ambient temperature for 15 min), followed by 30 μL of 0.05 mM resazurine+1000 mU/ml Diaphorase in 200 mM Tris-HCl, pH 7.7 for 15 min at ambient temperature. The plates were read for fluorescence (Excitation/Emission=540 nm/590 nm) using an EnVision plate reader. […] Note that, in Table 4, the “Compound No” corresponds to the compound numbers in Table 1.

mouse CD38 = target: T2, mouse CD38 (Mus musculus, UniProt P56528); assay: mouse recombinant CD38 enzyme assay (hydrolysis of NAD+); assay type: biochemical; details: read-out: mCD38 BioChem IC50
T2 sequence (P56528 1-304): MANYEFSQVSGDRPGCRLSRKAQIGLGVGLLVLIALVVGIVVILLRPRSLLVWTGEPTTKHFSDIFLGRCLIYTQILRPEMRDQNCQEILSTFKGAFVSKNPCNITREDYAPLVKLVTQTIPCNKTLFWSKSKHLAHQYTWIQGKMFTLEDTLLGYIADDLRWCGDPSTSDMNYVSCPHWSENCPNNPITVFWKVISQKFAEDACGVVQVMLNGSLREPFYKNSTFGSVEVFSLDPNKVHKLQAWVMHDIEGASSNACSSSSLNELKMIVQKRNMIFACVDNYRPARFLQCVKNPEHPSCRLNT
Protocol: as §1

Structure (SMILES): O=C(NC1(c2ccc(C(F)(F)F)cc2)COC1)c1cccc(-n2ccnc2)n1 [Compound 58, 6-(1H-imidazol-1-yl)-N-(3-(4-(trifluoromethyl)phenyl)oxetan-3-yl)picolinamide]
- IC50 (human CD38): 2180 nM
- IC50 (mouse CD38): 1040 nM

Structure (SMILES): COCCO[C@H]1C[C@H](NC(=O)c2nccc(-n3ccnc3)n2)C1 [Compound 223, 4-(1H-imidazol-1-yl)-N-((1r,3r)-3-(2-methoxyethoxy)cyclobutyl)pyrimidine-2-carboxamide]
- IC50 (human CD38): 1630 nM
- IC50 (mouse CD38): 459 nM

Structure (SMILES): Cn1cncc1-c1ccnc(C(=O)N[C@H]2CC[C@@](O)(c3ccccc3)CC2)n1 [Compound 253, N-((1r,4r)-4-hydroxy-4-phenylcyclohexyl)-4-(1-methyl-1H-imidazol-5-yl)pyrimidine-2-carboxamide]
- IC50 (human CD38): 1700 nM
- IC50 (mouse CD38): 124 nM

Structure (SMILES): O=C(N[C@H]1CC[C@H](CO)CC1)c1ccnc(-c2cncs2)n1 [Compound 140, N-((1r,4r)-4-(hydroxymethyl)cyclohexyl)-2-(thiazol-5-yl)pyrimidine-4-carboxamide]
- IC50 (human CD38): 747 nM
- IC50 (mouse CD38): 117 nM

Structure (SMILES): CO[C@H]1CC[C@H](NC(=O)c2cc(O)nc(-n3ccnc3)n2)CC1 [Compound 126, 6-hydroxy-2-(1H-imidazol-1-yl)-N-((1r,4r)-4-methoxycyclohexyl)pyrimidine-4-carboxamide]
- IC50 (human CD38): 841 nM
- IC50 (mouse CD38): 84 nM

Structure (SMILES): Cn1cncc1-c1nc(C(=O)NC2CCC(F)(F)CC2)cc(C2CCC2)n1 [Compound 182, 6-cyclobutyl-N-(4,4-difluorocyclohexyl)-2-(1-methyl-1H-imidazol-5-yl)pyrimidine-4-carboxamide]
- IC50 (human CD38): 11 nM
- IC50 (mouse CD38): 2 nM

Structure (SMILES): Cn1cncc1-c1ccnc(C(=O)N[C@H]2C[C@@H](c3ccnc(C(F)(F)F)c3)C2)n1 [Compound 266, 4-(1-methyl-1H-imidazol-5-yl)-N-((1s,3s)-3-(2-(trifluoromethyl)pyridin-4-yl)cyclobutyl)pyrimidine-2-carboxamide]
- IC50 (human CD38): 708 nM
- IC50 (mouse CD38): 327 nM

Structure (SMILES): O=C(Nc1ccc(C(F)F)nc1)c1cc(N2CCCC2)cc(-c2cncs2)n1 [Compound 179, N-(6-(Difluoromethyl)pyridin-3-yl)-4-(pyrrolidin-1-yl)-6-(thiazol-5-yl)picolinamide]
- IC50 (human CD38): 1380 nM
- IC50 (mouse CD38): 142 nM

Structure (SMILES): Cn1cncc1-c1nc(C(=O)Nc2ccc(C(F)(F)F)nc2)cc(C(C)(C)O)n1 [Compound 176, 6-(2-hydroxypropan-2-yl)-2-(1-methyl-1H-imidazol-5-yl)-N-(6-(trifluoromethyl)pyridin-3-yl)pyrimidine-4-carboxamide]
- IC50 (human CD38): 28 nM
- IC50 (mouse CD38): 19 nM

Structure (SMILES): CO[C@H]1CC[C@H](NC(=O)c2cc(C3CCC3)nc(-c3cncn3C)n2)CC1 [Compound 181, 6-Cyclobutyl-N-((1r,4r)-4-methoxycyclohexyl)-2-(1-methyl-1H-imidazol-5-yl)pyrimidine-4-carboxamide]
- IC50 (human CD38): 14 nM
- IC50 (mouse CD38): 2 nM

Structure (SMILES): NC(=O)c1cn(-c2cccc(C(=O)Nc3ccc(C(F)(F)F)nc3)n2)cn1 [Compound 76, 6-(4-carbamoyl-1H-imidazol-1-yl)-N-(6-(trifluoromethyl)pyridin-3-yl)picolinamide]
- IC50 (human CD38): 905 nM
- IC50 (mouse CD38): 3200 nM

Structure (SMILES): CO[C@H]1CC[C@H](NC(=O)c2cc(C3CC3)nc(-c3cncs3)n2)CC1 [Compound 108, 6-Cyclopropyl-N-((1r,4r)-4-methoxycyclohexyl)-2-(thiazol-5-yl)pyrimidine-4-carboxamide]
- IC50 (human CD38): 711 nM
- IC50 (mouse CD38): 33 nM

Structure (SMILES): COCCO[C@H]1C[C@H](NC(=O)c2nccc(-c3cncn3C)n2)C1 [Compound 222, N-((1r,3r)-3-(2-methoxyethoxy)cyclobutyl)-4-(1-methyl-1H-imidazol-5-yl)pyrimidine-2-carboxamide]
- IC50 (human CD38): 933 nM
- IC50 (mouse CD38): 203 nM

Structure (SMILES): O=C(Nc1ccc(C(F)(F)F)nc1)c1cccc(-n2cnnc2)n1 [Compound 143, 6-(4H-1,2,4-triazol-4-yl)-N-(6-(trifluoromethyl)pyridin-3-yl)picolinamide]
- IC50 (human CD38): 2040 nM
- IC50 (mouse CD38): 1970 nM

Structure (SMILES): CO[C@H]1CC[C@H](NC(=O)c2cc(C(C)(C)O)nc(-c3cncn3C)n2)CC1 [Compound 178, 6-(2-Hydroxypropan-2-yl)-N-((1r,4r)-4-methoxycyclohexyl)-2-(1-methyl-1H-imidazol-5-yl)pyrimidine-4-carboxamide]
- IC50 (human CD38): 57 nM
- IC50 (mouse CD38): 13 nM

Other lines, results leading:

- IC50 (human CD38): 25.4 nM
- IC50 (mouse CD38): 20.6 nM
Structure (SMILES): COCCO[C@@H]1CC[C@@H](NC(=O)c2cc(C3CCOCC3)nc(-c3cncn3C)n2)C1 [Compound 352, N-((1R,3R)-3-(2-methoxyethoxy)cyclopentyl)-2-(1-methyl-1H-imidazol-5-yl)-6-(tetrahydro-2H-pyran-4-yl)pyrimidine-4-carboxamide]

- IC50 (human CD38): 2150 nM
- IC50 (mouse CD38): 415 nM
Structure (SMILES): O=C(N[C@H]1C[C@@H](c2ccnc(C(F)(F)F)c2)C1)c1nccc(-n2ccnc2)n1 [Compound 271, 4-(1H-imidazol-1-yl)-N-((1s,3s)-3-(2-(trifluoromethyl)pyridin-4-yl)cyclobutyl)pyrimidine-2-carboxamide]

- IC50 (human CD38): 319 nM
- IC50 (mouse CD38): 166 nM
Structure (SMILES): CO[C@H]1CC[C@H](NC(=O)c2nc(-c3cncn3C)cnc2C)CC1 [Compound 298, N-((1r,4r)-4-methoxycyclohexyl)-3-methyl-6-(1-methyl-1H-imidazol-5-yl)pyrazine-2-carboxamide]

- IC50 (human CD38): 128 nM
- IC50 (mouse CD38): 28.2 nM
Structure (SMILES): O=C(N[C@H]1CC[C@H](O)CC1)c1nc(C(F)F)cc(-n2ccnc2)n1 [Compound 349, 4-(difluoromethyl)-N-((1r,4r)-4-hydroxycyclohexyl)-6-(1H-imidazol-1-yl)pyrimidine-2-carboxamide]

- IC50 (human CD38): 3.3 nM
- IC50 (mouse CD38): 1 nM
Structure (SMILES): Cn1cncc1-c1nc(C(=O)Nc2ccc(C(F)(F)F)nc2)cc(C2CC3(COC3)C2)n1 [Compound 345, 2-(1-methyl-1H-imidazol-5-yl)-6-(2-oxaspiro[3.3]heptan-6-yl)-N-(6-(trifluoromethyl)pyridin-3-yl)pyrimidine-4-carboxamide]

- IC50 (human CD38): 10.4 nM
- IC50 (mouse CD38): 1.9 nM
Structure (SMILES): Cn1cncc1-c1nc(C(=O)N[C@H]2CC[C@H](OCC(F)(F)F)CC2)cc(C2CCOCC2)n1 [Compound 337, 2-(1-methyl-1H-imidazol-5-yl)-6-(tetrahydro-2H-pyran-4-yl)-N-((1r,4r)-4-(2,2,2-trifluoroethoxy)cyclohexyl)pyrimidine-4-carboxamide]

- IC50 (human CD38): 26 nM
- IC50 (mouse CD38): 4.7 nM
Structure (SMILES): CO[C@H]1CC[C@H](NC(=O)c2cc(C3(O)CCC(F)(F)CC3)nc(-c3cncn3C)n2)CC1 [Compound 331, 6-(4,4-difluoro-1-hydroxycyclohexyl)-N-((1r,4r)-4-methoxycyclohexyl)-2-(1-methyl-1H-imidazol-5-yl)pyrimidine-4-carboxamide]

- IC50 (human CD38): 15.9 nM
- IC50 (mouse CD38): 2.1 nM
Structure (SMILES): Cn1cncc1-c1nc(C(=O)N[C@H]2CC[C@H](OC(F)F)CC2)cc(C2CCC(F)(F)CC2)n1 [Compound 324, 6-(4,4-difluorocyclohexyl)-N-((1r,4r)-4-(difluoromethoxy)cyclohexyl)-2-(1-methyl-1H-imidazol-5-yl)pyrimidine-4-carboxamide]

- IC50 (human CD38): 22.1 nM
- IC50 (mouse CD38): 10.6 nM
Structure (SMILES): Cn1cncc1-c1ncc(Cl)c(C(=O)N[C@H]2CC[C@H](OC(F)F)CC2)n1 [Compound 323, 5-chloro-N-((1r,4r)-4-(difluoromethoxy)cyclohexyl)-2-(1-methyl-1H-imidazol-5-yl)pyrimidine-4-carboxamide]

- IC50 (human CD38): 12.3 nM
- IC50 (mouse CD38): 1.3 nM
Structure (SMILES): Cn1cncc1-c1nc(C(=O)Nc2ccc(C(C)(C)O)nc2)cc(C2CCC(F)(F)CC2)n1 [Compound 336, 6-(4,4-difluorocyclohexyl)-N-(6-(2-hydroxypropan-2-yl)pyridin-3-yl)-2-(1-methyl-1H-imidazol-5-yl)pyrimidine-4-carboxamide]

- IC50 (human CD38): 79.1 nM
- IC50 (mouse CD38): 41.7 nM
Structure (SMILES): Cn1cncc1-c1ccnc(C(=O)N[C@H]2CC[C@H](OC(F)(F)F)CC2)n1 [Compound 317, 4-(1-methyl-1H-imidazol-5-yl)-N-((1r,4r)-4-(trifluoromethoxy)cyclohexyl)pyrimidine-2-carboxamide]
